Columns and labels:
[1] = molecular target: T1, Human ACC1 (Homo sapiens, UniProt Q13085); assay: in vitro enzymatic ACC activity assay (malachite green, absorbance at 620 nm), ACC1; type: biochemical; conditions: recombinant His-tagged human ACC1, 8 μg/mL; 60 min preincubation, 20 min reaction at 30° C.
T1 construct: made in house; host or cells: SF-9 insect cells (baculovirus, pFAST-BacHTc)
Protocol: (§1) Provided in Example A is an in vitro enzymatic ACC activity assay for activity against ACC. The binding affinity of the test compound to ACC1 or ACC2 is determined by the changes in absorbance (at 620 nm); […]. It should be noted that a variety of other expression systems and hosts are also suitable for the expression of ACC, as would be readily appreciated by one of skill in the art.
A. Purification of Human ACC1
Human ACC1 cDNA was amplified from human liver cDNA by polymerase chain reaction using primers; 5′[…]3′ (SEQ ID NO. 1) and 5′[…]3′ (SEQ ID NO: 2). The amplified DNA fragment was digested by restriction enzyme SalI and NotI, and cloned into pFAST-BacHTc (Invitrogen). This plasmid DNA was used for preparation of recombinant vaculovirus with BAC-TO-BAC Baculovirus Expression System (Invitrogen).
SF-9 cells were infected with the vaculovirus and cultured at 27° C. for 3 days. Harvested cells were homogenized in buffer A (25 mM HEPES (pH7.5), 130 mM NaCl, 1 mM EDTA, 25 mM sodium glycerophosphate, 1 mM sodium orthovanadate, 10% glycerol, complete protease inhibitor), and subjected to ultracentrifuge at 185700×g for 50 min at 4° C. ACC1 protein with 6×His-tag at the N-terminal was purified from the supernatant using Ni-NTA Super Flow Gel (QIAGEN). Eluted protein was dialysed against buffer B (50 mM HEPES (pH 7.5), 300 mM NaCl, 10 mM MgCl2, 10 mM tripotassium citrate, 2 mM dithiothreitol) and concentrated using Vivaspin20 ultrafiltration tube (Sartorius).
(§2) C. Measurement of ACC Activity
(§3) Malachite green solution was prepared by mixing 100 mL of solution A (0.12% malachite green in 5N H2SO4), 25 mL of solution B (7.5% ammonium molybdate) and 2 mL of solution C (11% TWEEN-20).
(§4) ACC1 was diluted to 8 μg/mL in reaction buffer (50 mM HEPES pH7.5, 10 mM MgCl2, 10 mM tripotassium citrate, 2 mM DTT, 0.75 mg/mL fatty acid free BSA) and 10 μL diluted enzyme solution was pored into each well of 384-well clear bottom plate. Test compound was diluted in the reaction buffer and 5 μL of the compound solution was added into each well, and the mixture was incubated at 30° C. for 60 minutes. Reaction was initiated by addition of 5 μL substrate solution (50 mM KHCO3, 200 μM ATP, 200 μM acetyl-CoA). After incubation at 30° C. for 20 minutes, reaction was terminated by addition of 5 μL malachite green solution and absorbance at 620 nm was measured.
(§5) Percent activity at each concentration of compound was calculated from the following equation:
(§6) [formula] where Abs is absorbance, Avg is average.
(§7) Data were subjected to nonlinear regression analysis using GraphPad Prism Software (GraphPad Software Inc.) to obtain IC50 values.

[2] = molecular target: T2, Human ACC2 (Homo sapiens, UniProt O00763); assay: in vitro enzymatic ACC activity assay (malachite green, absorbance at 620 nm), ACC2; type: biochemical; conditions: recombinant His-tagged human ACC2, 6.4 μg/mL; same method as ACC1
T2 construct: made in house; host or cells: SF-9 insect cells (baculovirus, pFAST-BacHTa)
T2 sequence (O00763 117-2458 limits assumed): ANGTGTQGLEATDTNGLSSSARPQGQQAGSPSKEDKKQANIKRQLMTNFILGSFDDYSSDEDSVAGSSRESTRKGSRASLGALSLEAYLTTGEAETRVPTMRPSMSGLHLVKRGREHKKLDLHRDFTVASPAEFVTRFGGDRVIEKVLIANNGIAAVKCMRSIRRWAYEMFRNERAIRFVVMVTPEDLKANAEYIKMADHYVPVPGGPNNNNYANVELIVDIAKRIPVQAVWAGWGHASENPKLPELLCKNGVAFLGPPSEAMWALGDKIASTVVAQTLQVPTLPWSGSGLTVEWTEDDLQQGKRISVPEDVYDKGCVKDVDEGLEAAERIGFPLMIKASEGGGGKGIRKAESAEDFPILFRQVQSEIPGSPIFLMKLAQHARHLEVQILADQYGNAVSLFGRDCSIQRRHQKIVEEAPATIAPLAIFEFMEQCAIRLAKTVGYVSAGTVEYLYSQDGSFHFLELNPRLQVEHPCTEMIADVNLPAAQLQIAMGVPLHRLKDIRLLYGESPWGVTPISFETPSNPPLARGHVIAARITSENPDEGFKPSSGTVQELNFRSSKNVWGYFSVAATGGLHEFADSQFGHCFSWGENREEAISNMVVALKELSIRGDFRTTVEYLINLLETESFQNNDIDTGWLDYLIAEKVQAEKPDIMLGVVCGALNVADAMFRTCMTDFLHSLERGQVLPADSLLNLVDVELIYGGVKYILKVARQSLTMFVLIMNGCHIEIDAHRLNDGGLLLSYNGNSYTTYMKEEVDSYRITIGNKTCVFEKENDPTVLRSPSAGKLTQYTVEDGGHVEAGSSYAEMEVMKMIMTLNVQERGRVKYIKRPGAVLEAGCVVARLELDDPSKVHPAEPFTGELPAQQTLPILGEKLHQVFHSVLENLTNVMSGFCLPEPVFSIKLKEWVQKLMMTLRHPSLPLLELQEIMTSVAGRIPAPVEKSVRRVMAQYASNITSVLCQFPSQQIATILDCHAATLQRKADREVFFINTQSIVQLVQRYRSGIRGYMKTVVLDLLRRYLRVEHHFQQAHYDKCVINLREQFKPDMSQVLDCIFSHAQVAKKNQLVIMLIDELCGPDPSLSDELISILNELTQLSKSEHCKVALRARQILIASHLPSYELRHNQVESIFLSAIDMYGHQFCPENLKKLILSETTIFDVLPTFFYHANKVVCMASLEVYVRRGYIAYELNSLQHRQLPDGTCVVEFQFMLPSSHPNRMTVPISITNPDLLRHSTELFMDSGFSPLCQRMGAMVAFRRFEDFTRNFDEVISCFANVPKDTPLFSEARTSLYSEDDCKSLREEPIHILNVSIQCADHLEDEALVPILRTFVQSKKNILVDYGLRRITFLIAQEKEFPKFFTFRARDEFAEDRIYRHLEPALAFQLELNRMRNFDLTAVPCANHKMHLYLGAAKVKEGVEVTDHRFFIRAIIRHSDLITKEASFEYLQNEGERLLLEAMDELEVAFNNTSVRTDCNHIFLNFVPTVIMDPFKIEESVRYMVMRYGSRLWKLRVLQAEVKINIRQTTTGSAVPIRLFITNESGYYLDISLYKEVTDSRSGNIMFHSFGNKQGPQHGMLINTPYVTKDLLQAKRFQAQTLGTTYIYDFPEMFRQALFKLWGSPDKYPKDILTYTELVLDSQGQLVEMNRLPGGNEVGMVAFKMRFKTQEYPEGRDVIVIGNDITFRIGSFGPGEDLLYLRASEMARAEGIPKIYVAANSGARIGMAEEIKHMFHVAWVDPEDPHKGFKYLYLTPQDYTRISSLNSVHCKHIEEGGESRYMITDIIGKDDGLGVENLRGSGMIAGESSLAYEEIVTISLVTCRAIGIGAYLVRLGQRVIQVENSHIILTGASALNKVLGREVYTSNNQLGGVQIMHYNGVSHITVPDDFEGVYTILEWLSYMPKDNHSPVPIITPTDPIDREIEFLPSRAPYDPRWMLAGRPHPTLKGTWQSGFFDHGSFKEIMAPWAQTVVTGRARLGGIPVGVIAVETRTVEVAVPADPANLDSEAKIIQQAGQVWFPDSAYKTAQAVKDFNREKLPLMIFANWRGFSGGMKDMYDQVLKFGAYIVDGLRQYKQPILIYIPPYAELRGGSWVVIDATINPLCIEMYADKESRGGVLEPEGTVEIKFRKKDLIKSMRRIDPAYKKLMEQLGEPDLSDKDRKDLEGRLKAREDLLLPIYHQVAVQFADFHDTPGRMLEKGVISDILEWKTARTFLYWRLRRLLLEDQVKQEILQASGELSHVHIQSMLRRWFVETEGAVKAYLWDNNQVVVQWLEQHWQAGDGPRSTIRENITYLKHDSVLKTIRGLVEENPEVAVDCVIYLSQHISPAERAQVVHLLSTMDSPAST
Protocol: as §1
B. Purification of Human ACC2
Human ACC2 cDNA except coding region for mitochondria localization sequence was amplified from human skeletal muscle cDNA by polymerase chain reaction using primers; 5′[…]3′ (SEQ ID NO: 3) and 5′[…]3′ (SEQ ID NO: 4). The amplified DNA fragment was digested by SalI and AflIII, and cloned into pFAST-BacHTa (Invitrogen). Preparation of recombinant vaculovirus, infection of the virus to SF-9 cells and purification of recombinant ACC2 protein with 6×His-tag at the N-terminal were performed in the same method as described above.
as §2, §3, §4
ACC2 was diluted to 6.4 μg/mL in reaction buffer, and the activity was measured by the same method as described for ACC1.
as §5, §6, §7

IC50 [1] [µM] | IC50 [2] [µM] | Compound
> 10 | > 10 | CCNC(=O)Nc1sc2ccccc2c1C(=O)N1CCC2(CC1)N=C(Cn1cc(CN)nn1)NC2=O [Compound 34, 1-(3-(2-((4-(aminomethyl)-1 H-1,2,3-triazol-1-yl)methyl)-4-oxo-1,3,8-triazaspiro[4.5]dec-1-enecarbonyl)benzo[b]thiophen-2-yl)-3-ethylurea]
> 10 | > 10 | CCNC(=O)Nc1sc2ccccc2c1C(=O)N1CCC2(CC1)N=C(CN1C(=O)CCC1=O)NC2=O [Compound 5, 1-(3-(2-((2,5-dioxopyrrolidin-1-yl)methyl)-4-oxo-1,3,8-triazaspiro[4.5]dec-1-enecarbonyl)benzo[b]thiophen-2-yl)-3-ethylurea]
1 to 10 | 1 to 10 | CCNC(=O)Nc1sc2ccccc2c1C(=O)N1CCC2(CC1)N=C(CCC(=O)OCC)NC2=O [Compound 10, ethyl 3-(8-(2-(3-ethylureido)benzo[b]thiophene-3-carbonyl)-4-oxo-1,3,8-triazaspiro[4.5]dec-1-en-2-yl)propanoate]
> 10 | 1 to 10 | CCNC(=O)Nc1sc2ccccc2c1C(=O)N1CCC2(CC1)N=C(Cn1ccccc1=O)NC2=O [Compound 33, 1-ethyl-3-(3-(4-oxo-2-((2-oxopyridin-1(2 H)-yl)methyl)-1,3,8-triazaspiro[4.5]dec-1-enecarbonyl)benzo[b]thiophen-2-yl)urea]
> 10 | < 1 | CCNC(=O)Nc1sc2ccccc2c1C(=O)N1CCC2(CC1)N=C(COc1ccccc1C#N)NC2=O [Compound 26, 1-(3-(2-((2-cyanophenoxy)methyl)-4-oxo-1,3,8-triazaspiro[4.5]dec-1-enecarbonyl)benzo[b]thiophen-2-yl)-3-ethylurea]
> 10 | 1 to 10 | CCNC(=O)Nc1sc2ccccc2c1C(=O)N1CCC2(CC1)N=C(CS(C)(=O)=O)NC2=O [Compound 4, 1-ethyl-3-(3-(2-(methylsulfonylmethyl)-4-oxo-1,3,8-triazaspiro[4.5]dec-1-enecarbonyl)benzo[b]thiophen-2-yl)urea]
1 to 10 | 1 to 10 | CCNC(=O)Nc1sc2ccccc2c1C(=O)N1CCC2(CC1)N=C(CCC(=O)N(CC)CC)NC2=O [Compound 12, N,N-diethyl-3-(8-(2-(3-ethylureido)benzo[b]thiophene-3-carbonyl)-4-oxo-1,3,8-triazaspiro[4.5]dec-1-en-2-yl)propanamide]
1 to 10 | < 1 | CCNC(=O)Nc1sc2ccccc2c1C(=O)N1CCC2(CC1)N=C(CS(=O)(=O)C(C)C)NC2=O [Compound 24, 1-ethyl-3-(3-(2-(isopropylsulfonylmethyl)-4-oxo-1,3,8-triazaspiro[4.5]dec-1-enecarbonyl)benzo[b]thiophen-2-yl)urea]
> 10 | 1 to 10 | CCNC(=O)Nc1sc2ccccc2c1C(=O)N1CCC2(CC1)N=C(CCl)NC2=O [Compound 8, 1-(3-(2-(chloromethyl)-4-oxo-1,3,8-triazaspiro[4.5]dec-1-enecarbonyl)benzo[b]thiophen-2-yl)-3-ethylurea]
> 10 | < 1 | CCNC(=O)Nc1sc2ccccc2c1C(=O)N1CCC2(CC1)N=C(COc1ccccc1C(N)=O)NC2=O [Compound 27, 2-((8-(2-(3-ethylureido)benzo[b]thiophene-3-carbonyl)-4-oxo-1,3,8-triazaspiro[4.5]dec-1-en-2-yl)methoxy)benzamide]
1 to 10 | < 1 | CCNC(=O)Nc1sc2c(OC)cccc2c1C(=O)N1CCC2(CC1)N=C(C(C)C)NC2=O [Compound 16, 1-ethyl-3-(3-(2-isopropyl-4-oxo-1,3,8-triazaspiro[4.5]dec-2-enecarbonyl)-7-methoxybenzo[b]thiophen-2-yl)urea]
1 to 10 | < 1 | CCNC(=O)Nc1sc2ccccc2c1C(=O)N1CCC2(CC1)N=C(COC1CCCCC1)NC2=O [Compound 28, 1-(3-(2-(cyclohexyloxymethyl)-4-oxo-1,3,8-triazaspiro[4.5]dec-1-enecarbonyl)benzo[b]thiophen-2-yl)-3-ethylurea]
1 to 10 | 1 to 10 | CCNC(=O)Nc1sc2c(OC)cccc2c1C(=O)N1CCC2(CC1)N=C(CCl)NC2=O [Compound 9, 1-(3-(2-(chloromethyl)-4-oxo-1,3,8-triazaspiro[4.5]dec-1-enecarbonyl)-7-methoxybenzo[b]thiophen-2-yl)-3-ethylurea]
1 to 10 | < 1 | CCCCC1=NC2(CCN(C(=O)c3c(NC(=O)NCC)sc4ccccc34)CC2)C(=O)N1 [Compound 15, 1-(3-(2-butyl-4-oxo-1,3,8-triazaspiro[4.5]dec-1-enecarbonyl)benzo[b]thiophen-2-yl)-3-ethylurea]
< 1 | < 1 | CCCCC1=NC2(CCN(C(=O)c3c(NC(=O)NCC)sc4c(OC)cccc34)CC2)C(=O)N1 [Compound 17, 1-(3-(2-butyl-4-oxo-1,3,8-triazaspiro[4.5]dec-1-enecarbonyl)-7-methoxybenzo[b]thiophen-2-yl)-3-ethylurea]
> 10 | < 1 | CCNC(=O)Nc1sc2ccccc2c1C(=O)N1CCC2(CC1)N=C(C[S+]([O-])C(C)C)NC2=O (centres unmarked) [Compound 23, 1-ethyl-3-(3-(2-(isopropylsulfinylmethyl)-4-oxo-1,3,8-triazaspiro[4.5]dec-1-enecarbonyl)benzo[b]thiophen-2-yl)urea]
< 1 | < 1 | CCNC(=O)Nc1sc2c(OC)cccc2c1C(=O)N1CCC2(CC1)N=C(COC1CCCCC1)NC2=O [Compound 32, 1-(3-(2-(cyclohexyloxymethyl)-4-oxo-1,3,8-triazaspiro[4.5]dec-1-enecarbonyl)-7-methoxybenzo[b]thiophen-2-yl)-3-ethylurea]
1 to 10 | 1 to 10 | CCNC(=O)Nc1sc2ccccc2c1C(=O)N1CCC2(CC1)N=C(CSc1ccc(F)cc1)NC2=O [Compound 21, 1-ethyl-3-(3-(2-((4-fluorophenylthio)methyl)-4-oxo-1,3,8-triazaspiro[4.5]dec-1-enecarbonyl)benzo[b]thiophen-2-yl)urea]
1 to 10 | < 1 | CCNC(=O)Nc1sc2ccccc2c1C(=O)N1CCC2(CC1)N=C(Cn1cc(C(C)(C)C)nn1)NC2=O [Compound 36, 1-(3-(2-((4-tert-butyl-1 H-1,2,3-triazol-1-yl)methyl)-4-oxo-1,3,8-triazaspiro[4.5]dec-1-enecarbonyl)benzo[b]thiophen-2-yl)-3-ethylurea]
> 10 | > 10 | CCNC(=O)Nc1sc2ccccc2c1C(=O)N1CCC(N)(C#N)CC1 [Compound 6, 1-(3-(4-amino-4-cyanopiperidine-1-carbonyl)benzo[b]thiophen-2-yl)-3-ethylurea]

Compound | IC50 [1] [µM] | IC50 [2] [µM]
CCNC(=O)Nc1sc2c(OC)cccc2c1C(=O)N1CCC2(CC1)N=C(COCC(C)C)NC2=O [Compound 31, 1-ethyl-3-(3-(2-(isobutoxymethyl)-4-oxo-1,3,8-triazaspiro[4.5]dec-1-enecarbonyl)-7-methoxybenzo[b]thiophen-2-yl)urea] | < 1 | < 1
CCNC(=O)Nc1sc2ccccc2c1C(=O)N1CCC2(CC1)N=C(COCC(C)C)NC2=O [Compound 30, 1-ethyl-3-(3-(2-(isobutoxymethyl)-4-oxo-1,3,8-triazaspiro[4.5]dec-1-enecarbonyl)benzo[b]thiophen-2-yl)urea] | 1 to 10 | < 1

From patent US7981904B2, “Acetyl CoA carboxylase inhibitors” (Takeda Pharmaceutical Company Limited, priority 2008, dated 2011)
